The values that follow come from the OPERA property sets (Mansouri et al. 2018).

Structures are written as SMILES.

Conditions in one series: not given
With `CCOC(=O)C=CC(=O)O`, the melting point came out at 70 °C.
As to `FC1CCCCC1`, the boiling point came to 101 °C and the melting point was determined as 13 °C.
In turn, `CCO[Si](C)(C)C` showed a boiling point of 76 °C and a log10 vapour pressure (mmHg) of 2.06.
In turn, `CC(=O)Oc1ccc2c(c1)CC[C@@H]1[C@@H]2CC[C@]2(C)C(=O)[C@H](OC(C)=O)C[C@@H]12` gave a melting point of 180 °C.
`OCc1ccc(CO)cc1`: the melting point amounted to 118 °C.
With `COCC(F)F`, the boiling point is 48.5 °C and the log10 vapour pressure (mmHg) amounted to 2.48.
On to `Clc1ccc2c(Cl)c(Cl)ccc2c1`, for which the log10 Koa turned out to be 7.5.
Consider `CCCCCCCCCCCCCCCC[N+](C)(C)CC.[Br-]`, for which the melting point is 182 °C.
In turn, `c1ccc2c(c1)C1c3ccccc3C2c2ccccc21` had a melting point of 254 °C.
Regarding `Oc1ccc(O)c(O)c1`, the melting point was 140 °C.
Take `CCN(CC)C(=O)c1cccc(C)c1`: the boiling point worked out at 290 °C, the log10 vapour pressure (mmHg) is -2.7, the melting point is -45 °C and the ready biodegradability result is on record as “not readily biodegradable”.
`CCOC(=O)C(NC(C)=O)C(=O)OCC`: the melting point is 96.3 °C.
For the compound `COc1ccccc1C(=O)O`, the log10 vapour pressure (mmHg) was -4.8, the melting point was 101 °C and the ready biodegradability entry is listed as “readily biodegradable”.
In turn, `C[C@H]1C[C@H]1C(=O)O` had a boiling point of 191 °C.
Compound `CC(=O)c1ccc(O)cc1O` had a melting point of 146 °C.
In the case of `O=[N+]([O-])c1cccc2c([N+](=O)[O-])cccc12`, the melting point was found to be 219 °C and the ready biodegradability result is “not readily biodegradable”.
`CCOC(=O)C(C#N)=Cc1ccccc1` had a melting point of 51 °C.
As for `CNc1ccc2oc(C[C@@H]3OC4(CC[C@@H]3C)O[C@H](C(C)C(=O)c3ccc[nH]3)[C@H](C)C[C@H]4C)nc2c1C(=O)O` (stereo not given in full), the melting point is 182 °C.
In turn, `CCN(CC)C(=O)[C@@H]1C=C2c3cccc4[nH]cc(c34)C[C@H]2N(C)C1` displayed a melting point of 82.5 °C.
Take `CN(C)c1ccc(C(=O)c2ccc(N(C)C)cc2)cc1`: the log10 Koc (L/kg) is 2.21, the melting point came out at 179 °C and the ready biodegradability result is listed as “not readily biodegradable”.
`CCCC(C)(CC)CCC` had a boiling point of 161 °C.
Regarding `CC(C)(C)NCCNC(C)(C)C`, the boiling point stood at 197 °C and the log10 vapour pressure (mmHg) is -0.575.
On to `CCc1cccc(CC)c1`, for which the boiling point was 181 °C, the log10 biodegradation half-life (days) stood at 0.845, the log10 vapour pressure (mmHg) is 0.0531 and the melting point was -83.9 °C. The ready biodegradability entry is reported as “not readily biodegradable”.
As for `CCCCCCCCC(=O)OCCCC`, the log10 vapour pressure (mmHg) was -1.67 and the melting point was -38 °C.
For the compound `CC1(C)C(=O)N(Br)C(=O)N1Cl`, the melting point was 164 °C.
With `CC(=O)N(C)c1ccccc1`, the boiling point turned out to be 256 °C, the melting point was 103 °C and the ready biodegradability entry is recorded as “not readily biodegradable”.
In the case of `CCN(CC)CCOC(=O)C(O)(c1ccccc1)c1ccccc1`, the melting point is 51 °C.
As for `c1ccc2occc2c1`, the boiling point stood at 174 °C and the log10 vapour pressure (mmHg) is -0.356.
For the compound `c1ccc2c(c1)c1cccc3ccc4cccc2c4c31`, the log10 biodegradation half-life (days) turned out to be 2.56, the log10 vapour pressure (mmHg) was -8.24 and the melting point worked out at 178 °C.
As to `O=C(Cl)c1cccc(Cl)c1`, the boiling point was found to be 225 °C and the log10 vapour pressure (mmHg) was -0.854.
Turning to `O=CC=CC=Cc1ccccc1`, the melting point was 42.5 °C.
With `CCCCC(C)C(C)O` (stereo not given), the boiling point was 166 °C.
In the case of `CC(C)c1ccc(C=O)cc1`, the boiling point was 236 °C and the ready biodegradability result was “readily biodegradable”.
For the compound `CC1=CC(=O)OC1=O`, the boiling point came out at 214 °C and the melting point amounted to 7.5 °C.
Regarding `O=C(O)CCCOc1ccc(Cl)cc1Cl`, the boiling point is 324 °C and the melting point worked out at 118 °C.
Compound `Cc1c(Cl)cc(-c2ccc(O)nn2)cc1Cl` gave a melting point of 252 °C.
For `CC(C)C(C)(C)C(C)(C)C`, the boiling point stood at 166 °C and the melting point was -36.4 °C.
`CNC(=O)Nc1ccccc1` returned a log10 Koc (L/kg) of 1.29.
Take `COc1nc(C)nc(NC(=O)NS(=O)(=O)c2ccccc2Cl)n1`: the log10 Koc (L/kg) worked out at 2.19, the log10 vapour pressure (mmHg) was -10.6 and the melting point worked out at 176 °C.

The series is the same for the next values; noted with them: fish.
`CCN(CC)C(=O)c1cccc(C)c1` showed a log10 BCF of 0.38.
Consider `CN(C)c1ccc(C(=O)c2ccc(N(C)C)cc2)cc1`, for which the log10 BCF came out at 1.45 and the log10 biotransformation half-life (days) was -0.77.
As for `CCc1cccc(CC)c1`, the log10 BCF came out at 2.73 and the log10 biotransformation half-life (days) turned out to be 0.09.
With `CC(=O)N(C)c1ccccc1`, the log10 BCF came to 0.18 and the log10 biotransformation half-life (days) was -1.12.

In general, melting point refers to the temperature, or range, at which the solid turns liquid. Broadly, the boiling point is the temperature at which the vapour pressure of the liquid equals the pressure above it.
